Assay results from US9888690B2, “Insecticidal compounds from Nothapodites foetida and process for the extraction thereof” (priority 2011, dated 2018).
Values after ≈ are worked out from the molar mass of the structure shown. Where two headings read alike, the source gives them in different places.

Columns and labels:
[1] = system: Mycobacterium tuberculosis Ra; experiment: XTT assay, anti-mycobacterial activity; format: cell-based, M. tuberculosis H37Ra (ATCC 25177); conditions: for inhibition at 100 µg/mL: inhibition at 100 μg/ml, 8th day of incubation
Procedure: M. tuberculosis H37Ra (ATCC 25177) cells, obtained from MTCC (Chandigarh, India), were grown to logarithmic phase (O.D, 0.595˜1.0) in a defined medium (M. pheli medium) under aerobic conditions in a shaker incubator (Thermo Electron Corporation Model 481) maintained at 150 rpm and 37° C. After growth, the culture was sonicated for 2 min using water bath sonicator. Sonicated cells were used for inoculation in micro plate wells. […] of culture containing ˜1×10^5 cells/ml was added to each well of 96 well plates. Camptothecanoid 1, 2 and 3 and Phthalate, […], dissolved in DMSO (Sigma), were added to the wells to attain a final concentration of 100 µg/ml respectively for screening. Then, the plate was incubated in a CO2 incubator at 37° C. The plate was taken out on the 8th day of incubation to measure the viable cell counts. The optical density of the culture was measured before addition of XTT (Sigma) at 470 nm which was served as a blank for the MIC calculations. XTT, 200 µM, was added and incubated for 20 min at 37° C. after shaking for 1 min. After 20 min of incubation, 60 µM Menadione (Sigma) was added and incubated at 37° C. for 40 min after mixing of 1 min. Finally, the optical density of the suspension was measured at 470 nm by using microplate reader. Isoniazid (Sigma) was used as a positive control.

[2] = system: THP 1 cell line; experiment: MTT cell proliferation assay; format: cell-based; conditions: Homo sapiens, read-out: MTT assay against THP 1 cell line % Inhibition
Procedure: Camptothecanoid 1, 2 and 3 and Phthalate were tested for their inhibitory effect on THP-1 cells. About 10,000 cells were taken per well in 96-well tissue culture plates and treated with test samples at 100 μg/ml for 72 h. Vehicle control (DMSO, 1%) and positive control (Paclitaxel, 100 μg/ml) was run simultaneously. Cell proliferation was assessed with 10 μl from 5 mg/ml stock solution of tetrazolium salt (MTT) dissolved in cell culture medium and subsequently incubated for additional 1 h at 37° C., 5% of CO2 and 95% humidity in incubator. The violet coloured formazan crystals formed were solubilized in 200 μl of isopropanol and incubated for another 4 h. The optical density was read on a micro plate reader (Spectramax plus384 plate reader, Molecular Devices Inc) at 490 nm filter against a blank prepared from cell-free wells. Absorbance given by cells treated with the carrier DMSO alone was taken as 100% cell growth (Table 2).

[3] = system: Sitophilus oryzae and Rhizopertha dominica; experiment: whole plant or invertebrate; format: in vivo
Procedure: The bioefficacy of the extracts were screened against S. oryzae and R. dominica on wheat at 1000 ppm. Required quantity of the extract dissolved in 6 ml of the solvent was pipetted over 60 gm wheat, taken in a 500 ml beaker. The grain was stirred with a glass rod to obtain uniform application. The control grain received the solvent alone. The treated grain was spread on petridish and kept overnight (12 hrs) for the solvent to evaporate. The 60 gm grain was divided into three lots of 20 gm each, taken in test tubes 25 mm diameter and 95 mm long.
Fifteen unsexed adults, 1-2 weeks old, of the rice weevil, Sitophilus oryzae and the lesser grain borer, Rhizopertha dominica were seeded into the tubes separately. The tubes were covered with muslin held by rubber bands. The mortality of the test insects was recorded after 1, 3, 7, 14 and 21 days. After the last count, the insects were discarded and the grain incubated to obtain the F1 progeny. The number of emerging progeny was recorded every second day till the emergence was complete. The progeny/adult day was calculated by Kazmaier et. al method. The progeny/adult day corrects for the reduction in the number of progeny due to adult mortality. A significant reduction in the progeny/adult day compared to the control indicates Insect Growth Regulating (IGR) activity, which is presented in Tables 1, 2 and 3.
Camptothecin obtained from Sigma Aldrich was assayed on wheat against S. oryzae and R. dominica as in example 1.

[4] = THP-1, inhibition at 100 μg/ml, 72 h

Molecule `CCCCCCCC(CC)COC(=O)c1ccccc1C(=O)OCC(CC)CCCCCCC` (stereo not shown) [Phthalate] has an inhibition at 100 µg/mL [1] of 45.6% and an inhibition at 100 µg/mL [2, 4] of 20.1%.
Molecule `NNC(=O)c1ccncc1` [Isoniazid] has an IC90 ([1]; read-out: IC90, XTT assay Mycobacterium tuberculosis Ra) of 0.05 µg/mL (≈ 0.365 µM).
`CC[C@@]1(O)C(=O)OCc2c1cc1n(c2=O)Cc2cc3ccccc3nc2-1` [Camptothecin] was tested, and the “No. of F1 progeny” value ([3]; 6.25 ppm on wheat) was 00, the “No. of F1 progeny” value ([3]; 12.50 ppm on wheat) was 00 and the “adult mortality (in words)” value ([3]; 12.50 ppm on wheat) was “no adult mortality”. The “No. days for 100% kill” value ([3]; 25 ppm on wheat) was 21 days, the “No. of F1 progeny” value ([3]; 25 ppm on wheat) was 00 and the “No. days for 100% kill” value ([3]; 50 ppm on wheat) was 14 days. For the same molecule, the “No. of F1 progeny” value ([3]; 50 ppm on wheat) was 00, the “No. days for 100% kill” value ([3]; 75 ppm on wheat) was 7 days and the “No. of F1 progeny” value ([3]; 75 ppm on wheat) was 00. For the same molecule, the “No. days for 100% kill” value ([3]; 100 ppm on wheat) was 3 days, the “No. of F1 progeny” value ([3]; 100 ppm on wheat) was 00 and the mortality at 6.25 ppm ([3]; Sitophilus oryzae) was 0%. For the same molecule, the mortality at 12.5 ppm ([3]; Sitophilus oryzae) was 0%, the mortality at 25 ppm ([3]; Sitophilus oryzae) was 100% and the mortality at 50 ppm ([3]; Sitophilus oryzae) was 100%. It also gave a mortality at 75 ppm ([3]; Sitophilus oryzae) of 100%, a mortality at 100 ppm ([3]; Sitophilus oryzae) of 100% and an inhibition at 12.5 ppm ([3]; Sitophilus oryzae, read-out: inhibition of F1 progeny) of 100%.
With `CC[C@](O)(C(=O)O)c1cc2n(c(=O)c1COC(C)=O)Cc1cc3c(OC)cccc3nc1-2` [Camptothecanoid 3] the inhibition at 100 µg/mL [1] was 59% and the inhibition at 100 µg/mL ([2]; THP-1, 72 h) was 90.2%.
Molecule `CC[C@H](OC1OC(CO)C(O)C(O)C1O)c1cc2n(c(=O)c1C)Cc1cc3ccccc3nc1-2` (stereo partly shown) [Camptothecanoid 1] has an inhibition at 100 µg/mL [1] of 48.3% and an inhibition at 100 µg/mL ([2]; THP-1, 72 h) of 70.9%.
`CC[C@](O)(C(=O)O)c1cc2n(c(=O)c1COC(C)=O)Cc1cc3ccccc3nc1-2` [Camptothecanoid 2] was tested, and the inhibition at 100 µg/mL [1] was 88.4% and the inhibition at 100 µg/mL ([2]; THP-1, 72 h) was 87.5%.
Work on `CC(=O)O[C@H]1C(=O)[C@@]2(C)[C@H]([C@H](OC(=O)c3ccccc3)[C@]3(O)C[C@H](OC(=O)[C@H](O)[C@@H](NC(=O)c4ccccc4)c4ccccc4)C(C)=C1C3(C)C)[C@]1(OC(C)=O)CO[C@@H]1C[C@@H]2O` [Paclitaxel] yielded an inhibition at 100 µg/mL [2, 4] of 61%.
